{"source": "patent US9550821B2", "about": "“Modulation of ghrelin levels and ghrelin/unacylated ghrelin ratio using unacylated ghrelin” (ALIZÉ PHARMA SAS, priority 2012, dated 2017)", "key": {"[1]": {"experiment": "Safety evaluation during overnight UAG infusion in T2DM subjects", "assay_type": "in vivo, human", "description": "(§1) A continuous overnight (15 hours) infusion of two doses of UAG (3 μg UAG/kg/hr and 10 μg UAG/kg/hr) versus placebo in a cross-over model on the AG concentrations was performed in eight overweight subjects with type 2 diabetes. FIG. 1 depicts a schematic representation of the study protocol. Glucose and insulin responses to a standard breakfast meal (SBM) in the subjects and reasonable metabolic control were assessed.\nStandard breakfast meal (SBM) consisted of: • 3 slices wheat bread; • 3 portions of margarine; • 2 slices of cheese (48% fat); • 1 portion of jam; • 1 cup of whole milk; and • 1 boiled egg; for a total of 714 kcal (17% proteins; 46% fat; and 37% carbohydrates). […] At each of the 3 visits, the following safety parameters were assessed: hemoglobin, hematocrit, platelet count, WBC count, RBC count, and differential and were determined using Sysmex XE 2100, Firma Sysmex, Ecustraat 11, 4879 NP Etten-Leur. AST, ALT, alkaline phosphatase, total bilirubin, creatine phophokinase (CPK), lactate dehydrogenase (LDH), creatinine, urea, amylase, lipase, uric acid, glucose, cholesterol, LDL, HDL, triglycerides, sodium, potassium, calcium, chloride, protein and albumin are determined using the Hitachi Modular P800, Roche Transistorstraat 41, 1332 CK Almere. […] AG and UAG levels were assessed before the start of the overnight infusion, 10 minutes before the start and 30 minutes after the SBM. […]"}, "[2]": {"experiment": "Overnight (15 hours) UAG infusion in T2DM subjects: serum UAG levels by MSD ELISA", "assay_type": "in vivo, human", "settings": "placebo 105.9±31.4", "description": "as §1\nSingle-center, investigator initiated, double blind and placebo controlled randomized study. During the first visit medical history, medication use and vital signs of subjects were checked. Blood samples were also taken for chemistry and hematology analysis. […]\nInfusions were performed at the local clinical research unit for 15 hours from 9 pm to […]. […] The dose was calculated based on the subject's weight. […]\nStandard breakfast meal (SBM) consisted of: • 3 slices wheat bread; • 3 portions of margarine; • 2 slices of cheese (48% fat); • 1 portion of jam; • 1 cup of whole milk; and • 1 boiled egg; for a total of 714 kcal (17% proteins; 46% fat; and 37% carbohydrates). […] At each of the 3 visits, the following safety parameters were assessed: hemoglobin, hematocrit, platelet count, WBC count, RBC count, and differential and were determined using Sysmex XE 2100, Firma Sysmex, Ecustraat 11, 4879 NP Etten-Leur. […]"}, "[3]": {"system": "glucose, insulin and lipid metabolisms", "settings": "cited from earlier work; for retention of UAG full length activity on glucose, insulin and lipid metabolisms: from U.S. Pat. Nos. 8,222,217 and 8,318,664; for smallest UAG fragment retaining UAG biological activity: from U.S. Pat. Nos. 8,222,217, 8,318,664 and WO/2008/145749"}, "AG-induced food intake": {"system": "AG-induced food intake", "experiment": "AG-induced food intake in rats", "assay_type": "in vivo, Sprague-Dawley rats", "settings": "rat, i.p. 42 μg/kg together with AG 13 μg/kg; food intake at 30 min, 1 h, 2 h", "description": "With respect to the experimental data presented in FIG. 8, Sprague-Dawley rats of 7 weeks of age, weighing between 275 g and 300 g, were fed a pellet diet ad libitum and were singly housed in plastic cage. The experiment was performed at 2.5 h after the onset of the light cycle in freely fed rats. The rates were i.p. injected simultaneously with vehicle plus vehicle, vehicle+AG (13 μg/kg) or cyclised UAG (6-13) (SEQ ID NO: 25) (42 μg/kg)+AG (13 μg/kg). Immediately after the completion of the i.p. injection in rats, the night-ad-libitum food was removed and replaced by 2 pellets for each animal, previously weighed, placed into the top of the cage. Food intake was calculated as the difference between the food weight before and after the feeding period at each time interval (30 min, 1 h, and 2 h). Cumulative food intake was calculated by summating the values of the different time periods."}}, "note": "Where no end group is shown, it is not given here."}
{"compound": "CC(C)C[C@H](NC(=O)[C@H](CCCCN)NC(=O)[C@H](C)NC(=O)[C@@H]1CCCN1C(=O)[C@@H]1CCCN1C(=O)[C@H](CCCCN)NC(=O)[C@H](CCCCN)NC(=O)[C@H](CO)NC(=O)[C@H](CCC(=O)O)NC(=O)[C@H](CCCCN)NC(=O)[C@H](CCCNC(=N)N)NC(=O)[C@H](CCC(N)=O)NC(=O)[C@H](CCC(N)=O)NC(=O)[C@@H](NC(=O)[C@H](CCCNC(=N)N)NC(=O)[C@H](CCC(N)=O)NC(=O)[C@H](Cc1cnc[nH]1)NC(=O)[C@H](CCC(=O)O)NC(=O)[C@@H]1CCCN1C(=O)[C@H](CO)NC(=O)[C@H](CC(C)C)NC(=O)[C@H](Cc1ccccc1)NC(=O)[C@H](CO)NC(=O)[C@H](CO)NC(=O)CN)C(C)C)C(=O)N[C@@H](CCC(N)=O)C(=O)N1CCC[C@H]1C(=O)N[C@@H](CCCNC(=N)N)C(=O)O", "note": "[UAG]", "values": [{"measurement": "laboratory evaluations", "setting": "[1]; 3 and 10 μg UAG/kg/hr overnight infusion", "result": "no significant changes in chemistry or parameters"}, {"measurement": "side effects reported by subjects", "setting": "[1]; 3 and 10 μg UAG/kg/hr overnight infusion vs placebo", "result": "did not report more side effects than placebo"}, {"measurement": "serum UAG levels before start of the SBM (mean±SD)", "setting": "[2]; 3 mcg/kg·hr UAG overnight infusion", "result": "10998 ± 2623", "unit": "pg/mL"}, {"measurement": "serum UAG levels before start of the SBM (mean±SD)", "setting": "[2]; 10 mcg/kg·hr UAG overnight infusion", "result": "12085 ± 1616", "unit": "pg/mL"}]}
{"compound": "EHQRVQ [UAG (8-13)]", "values": [{"measurement": "retention of UAG full length activity on glucose, insulin and lipid metabolisms", "setting": "[3]", "result": "retain the activity of UAG full length"}]}
{"compound": "Glu-His-Gln-Arg (EHQR; listed as Homo sapiens) [UAG (8-11)]", "values": [{"measurement": "smallest UAG fragment retaining UAG biological activity", "setting": "[3]", "result": "smallest UAG fragment to retain UAG activities"}, {"measurement": "retention of UAG full length activity on glucose, insulin and lipid metabolisms", "setting": "[3]", "result": "retain the activity of UAG full length"}]}
{"compound": "Glu-His-Gln-Arg-Val (EHQRV; listed as Homo sapiens) [UAG (8-12)]", "values": [{"measurement": "retention of UAG full length activity on glucose, insulin and lipid metabolisms", "setting": "[3]", "result": "retain the activity of UAG full length"}]}
{"compound": "His-Gln-Arg (HQR; listed as Homo sapiens) [UAG (9-11)]", "values": [{"measurement": "retention of UAG full length activity on glucose, insulin and lipid metabolisms", "setting": "[3]", "result": "retain the activity of UAG full length"}]}
{"compound": "His-Gln-Arg-Val (HQRV; listed as Homo sapiens) [UAG (9-12)]", "values": [{"measurement": "smallest UAG fragment retaining UAG biological activity", "setting": "[3]", "result": "smallest UAG fragment to retain the biological activity of UAG"}, {"measurement": "retention of UAG full length activity on glucose, insulin and lipid metabolisms", "setting": "[3]", "result": "retain the activity of UAG full length"}]}
{"compound": "SPEHQRVQ [UAG (6-13)]", "values": [{"measurement": "retention of UAG full length activity on glucose, insulin and lipid metabolisms", "setting": "[3]", "result": "retain the activity of UAG full length"}]}
{"compound": "Ser-Pro-Glu-His-Gln-Arg-Val-Gln (cycl) (SPEHQRVQ; cyclised; (1)..(8) Cyclic; listed as Homo sapiens) [cyclic UAG (6-13)]", "values": [{"measurement": "effect on AG-induced food intake (orexigenic effect)", "setting": "AG-induced food intake", "result": "able to counteract the orexigenic effects induced by AG"}]}
